Source: ChEMBL document CHEMBL4622885, “Rational design, synthesis and biological evaluation of novel multitargeting anti-AD iron chelators with potent MAO-B inhibitory and antioxidant activity” (Bioorg Med Chem, 2020)

How the values were obtained:
[1] = Dissociation constant, pKa1 of compound for protonation of the 4-oxo group in 0.1 M KCl incubated for 1 min by UV-pH titration based spectrophotometric analysis; assay type: physicochemical
[2] = Dissociation constant, pKa2 of compound for dissociation of the 3-hydroxyl group in 0.1 M KCl incubated for 1 min by UV-pH titration based spectrophotometric analysis; assay type: physicochemical
[3] = biological target: T1, Amine oxidase [flavin-containing] B (Homo sapiens, UniProt P27338); experiment: Inhibition of human recombinant MAO-B expressed in baculovirus infected BTI insect cells using kynuramine as substrate at 100 nM incubated for 10 mins followed by substrate addition by fluorimetric analysis relative to control
T1 sequence (P27338 whole entry): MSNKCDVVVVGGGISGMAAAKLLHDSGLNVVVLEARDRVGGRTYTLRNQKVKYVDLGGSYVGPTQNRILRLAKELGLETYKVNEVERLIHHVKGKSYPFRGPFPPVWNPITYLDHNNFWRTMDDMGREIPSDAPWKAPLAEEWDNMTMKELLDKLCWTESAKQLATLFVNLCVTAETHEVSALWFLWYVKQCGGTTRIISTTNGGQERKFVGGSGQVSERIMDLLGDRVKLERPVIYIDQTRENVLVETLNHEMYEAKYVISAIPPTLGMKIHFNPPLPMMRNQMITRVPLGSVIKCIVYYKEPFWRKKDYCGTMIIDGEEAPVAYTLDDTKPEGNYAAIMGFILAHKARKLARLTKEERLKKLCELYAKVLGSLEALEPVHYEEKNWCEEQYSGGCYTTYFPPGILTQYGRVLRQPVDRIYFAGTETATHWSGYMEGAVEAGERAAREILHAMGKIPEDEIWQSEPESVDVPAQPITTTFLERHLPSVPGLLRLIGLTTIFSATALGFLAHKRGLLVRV

[4] = biological target: T1, Amine oxidase [flavin-containing] B; experiment: Inhibition of human recombinant MAO-B expressed in baculovirus infected BTI insect cells using kynuramine as substrate incubated for 10 mins followed by substrate addition by fluorimetric analysis
[5] = Metal chelating activity assessed as iron chelation
[6] = Metal chelating activity assessed as Fe3+ complex formation by measuring stability constant for FeI in using pre Fe+3 complexed compound (FeCl3) in 0.1 M KCl :DMSO solution UV-pH titration based spectrophotometric analysis
[7] = Metal chelating activity assessed as Fe3+ complex formation by measuring stability constant for Fe(I)2 in using pre Fe+3 complexed compound (FeCl3) in 0.1 M KCl :DMSO solution UV-pH titration based spectrophotometric analysis
[8] = Metal chelating activity assessed as Fe3+ complex formation by measuring stability constant for Fe(I)3 in using pre Fe+3 complexed compound (FeCl3) in 0.1 M KCl :DMSO solution UV-pH titration based spectrophotometric analysis

COc1ccc(COc2ccc3cc(C(=O)NCCn4ccc(=O)c(O)c4C)c(=O)oc3c2)cc1
pKa at 1 min [1]: 3.24
pKa at 1 min [2]: 9.77
inhibition at 0.1 µM [3]: 47.6%
IC50 [4]: 0.143 µM
pFe3+ [5]: 17
log(activity) [6]: 14.1
log(activity) [7]: 24.8
log(activity) [8]: 33.3

Cc1c(O)c(=O)ccn1CCNC(=O)c1cc2ccc(O)cc2oc1=O
pKa at 1 min [1]: 2.75
pKa at 1 min [2]: 9.92
inhibition at 0.1 µM [3]: 29.5%
pFe3+ [5]: 17.2
log(activity) [6]: 13.8
log(activity) [7]: 25.2
log(activity) [8]: 34.2

O=C(NCCn1ccc(=O)c(O)c1)c1cc2ccccc2oc1=O
pKa at 1 min [1]: 3
pKa at 1 min [2]: 8.74
inhibition at 0.1 µM [3]: 46.1%
IC50 [4]: 0.195 µM
pFe3+ [5]: 18.2
log(activity) [6]: 12.9
log(activity) [7]: 23.4
log(activity) [8]: 31.8

Cc1c(O)c(=O)ccn1CCNC(=O)c1cc2cccc(OCc3ccccc3)c2oc1=O
pKa at 1 min [1]: 3.28
pKa at 1 min [2]: 9.58
inhibition at 0.1 µM [3]: 46.5%
IC50 [4]: 0.131 µM
pFe3+ [5]: 17.2
log(activity) [6]: 14
log(activity) [7]: 25.4
log(activity) [8]: 32.9

Cc1ccc2cc(C(=O)NCCn3ccc(=O)c(O)c3C)c(=O)oc2c1
pKa at 1 min [1]: 3.32
pKa at 1 min [2]: 9.75
inhibition at 0.1 µM [3]: 44.3%
IC50 [4]: 0.163 µM
pFe3+ [5]: 17.8
log(activity) [6]: 14.2
log(activity) [7]: 25.4
log(activity) [8]: 34.3

Cc1c(O)c(=O)ccn1CCNC(=O)c1cc2ccc(OCc3ccccc3[N+](=O)[O-])cc2oc1=O
pKa at 1 min [1]: 3.24
pKa at 1 min [2]: 9.74
inhibition at 0.1 µM [3]: 50.6%
IC50 [4]: 0.0986 µM
pFe3+ [5]: 18.2
log(activity) [6]: 15.1
log(activity) [7]: 25.9
log(activity) [8]: 34.6

Cc1c(O)c(=O)ccn1CCC(=O)Nc1cc2ccccc2oc1=O
pKa at 1 min [1]: 3.29
pKa at 1 min [2]: 9.48
inhibition at 0.1 µM [3]: 43.5%
IC50 [4]: 0.16 µM
pFe3+ [5]: 17.6
log(activity) [6]: 13.8
log(activity) [7]: 24.8
log(activity) [8]: 33.3

CCCOc1ccc2cc(C(=O)NCCn3ccc(=O)c(O)c3C)c(=O)oc2c1
pKa at 1 min [1]: 3.31
pKa at 1 min [2]: 9.75
inhibition at 0.1 µM [3]: 45.9%
IC50 [4]: 0.135 µM
pFe3+ [5]: 18.1
log(activity) [6]: 14.6
log(activity) [7]: 26
log(activity) [8]: 34.6

C#CCOc1ccc2cc(C(=O)NCCn3ccc(=O)c(O)c3C)c(=O)oc2c1
pKa at 1 min [1]: 3.32
pKa at 1 min [2]: 9.68
inhibition at 0.1 µM [3]: 20.7%
IC50 [4]: 0.143 µM
pFe3+ [5]: 17.9
log(activity) [6]: 14.2
log(activity) [7]: 25.5
log(activity) [8]: 34.1

COc1cccc2cc(C(=O)NCCn3ccc(=O)c(O)c3C)c(=O)oc12
pKa at 1 min [1]: 3.22
pKa at 1 min [2]: 9.55
inhibition at 0.1 µM [3]: 46%
IC50 [4]: 0.111 µM
pFe3+ [5]: 18.2
log(activity) [6]: 14.2
log(activity) [7]: 25.4
log(activity) [8]: 34.1

Cc1cccc(COc2ccc3cc(C(=O)NCCn4ccc(=O)c(O)c4C)c(=O)oc3c2)c1
pKa at 1 min [1]: 3.27
pKa at 1 min [2]: 9.72
inhibition at 0.1 µM [3]: 44.6%
IC50 [4]: 0.144 µM
pFe3+ [5]: 18.8
log(activity) [6]: 14.2
log(activity) [7]: 24.4
log(activity) [8]: 35.2

Cc1c(O)c(=O)ccn1C [DEFERIPRONE]
pKa at 1 min [1]: 3.61 to 3.67
pKa at 1 min [2]: 9.78 to 9.84
pFe3+ [5]: 20.7
log(activity) [6]: 14.4 to 15.1
log(activity) [7]: 25.7 to 27.4
log(activity) [8]: 34.2 to 37.4

Cc1cc(=O)c(O)cn1CCNC(=O)c1cc2ccccc2oc1=O
pKa at 1 min [1]: 3.3
pKa at 1 min [2]: 9.05
inhibition at 0.1 µM [3]: 44.8%
IC50 [4]: 0.129 µM
pFe3+ [5]: 17.3
log(activity) [6]: 12.9
log(activity) [7]: 23.3
log(activity) [8]: 31.8

Cc1c(O)c(=O)ccn1CCNC(=O)c1cc2ccc(OCc3ccccc3)cc2oc1=O
pKa at 1 min [1]: 3.25
pKa at 1 min [2]: 9.7
inhibition at 0.1 µM [3]: 30.1%
pFe3+ [5]: 16.9
log(activity) [6]: 14.1
log(activity) [7]: 24.9
log(activity) [8]: 33.2

COc1ccc2cc(C(=O)NCCn3ccc(=O)c(O)c3)c(=O)oc2c1
pKa at 1 min [1]: 3.07
pKa at 1 min [2]: 8.74
inhibition at 0.1 µM [3]: 31.3%
pFe3+ [5]: 18.3
log(activity) [6]: 12.9
log(activity) [7]: 23.4
log(activity) [8]: 31.9

Cc1c(O)c(=O)ccn1CCNC(=O)c1cc2ccc(OCc3ccc(F)cc3)cc2oc1=O
pKa at 1 min [1]: 3.27
pKa at 1 min [2]: 9.76
inhibition at 0.1 µM [3]: 48.1%
IC50 [4]: 0.128 µM
pFe3+ [5]: 17
log(activity) [6]: 14.2
log(activity) [7]: 25.1
log(activity) [8]: 33.5

Cc1c(O)c(=O)ccn1CCNC(=O)c1cc2ccc(OCc3cccc(Cl)c3)cc2oc1=O
pKa at 1 min [1]: 3.26
pKa at 1 min [2]: 9.56
inhibition at 0.1 µM [3]: 47.4%
IC50 [4]: 0.136 µM
pFe3+ [5]: 18.6
log(activity) [6]: 14.4
log(activity) [7]: 24.9
log(activity) [8]: 34.5

Cc1c(O)c(=O)ccn1CCNC(=O)c1cc2ccc(OCc3ccc(C(F)(F)F)cc3)cc2oc1=O
pKa at 1 min [1]: 3.37
pKa at 1 min [2]: 9.83
inhibition at 0.1 µM [3]: 47.4%
IC50 [4]: 0.119 µM
pFe3+ [5]: 18.1
log(activity) [6]: 14
log(activity) [7]: 25.1
log(activity) [8]: 34.9

COc1ccc2cc(C(=O)NCCn3cc(O)c(=O)cc3C)c(=O)oc2c1
pKa at 1 min [1]: 3.34
pKa at 1 min [2]: 9.07
inhibition at 0.1 µM [3]: 35.5%
pFe3+ [5]: 18.5
log(activity) [6]: 13.9
log(activity) [7]: 24.5
log(activity) [8]: 33

COc1ccc2oc(=O)c(C(=O)NCCn3ccc(=O)c(O)c3C)cc2c1
pKa at 1 min [1]: 3.27
pKa at 1 min [2]: 9.58
inhibition at 0.1 µM [3]: 38.5%
pFe3+ [5]: 17.1
log(activity) [6]: 14.2
log(activity) [7]: 25.3
log(activity) [8]: 32.8

Cc1ccc2oc(=O)c(C(=O)NCCn3ccc(=O)c(O)c3C)cc2c1
pKa at 1 min [1]: 3.33
pKa at 1 min [2]: 9.67
inhibition at 0.1 µM [3]: 34.8%
pFe3+ [5]: 17.9
log(activity) [6]: 14.1
log(activity) [7]: 25.4
log(activity) [8]: 34.1

Cc1c(O)c(=O)ccn1CCNC(=O)c1cc2ccc(OCC3CCCCC3)cc2oc1=O
pKa at 1 min [1]: 3.29
pKa at 1 min [2]: 9.76
inhibition at 0.1 µM [3]: 44.6%
pFe3+ [5]: 18.1
log(activity) [6]: 14.3
log(activity) [7]: 25.1
log(activity) [8]: 34.7
